Reference: patent US20100324081A1, “PREVENTIVE, INHIBITOR OR REMEDY FOR CEREBRAL ANEURYSM COMPRISING IBUDILAST AS AN ACTIVE INGREDIENT” (Kyorin Pharmaceutical Co., Ltd., priority 2007, published 2010)

How the values were obtained:
[1] = tested on: female rat animal model used for generating cerebral aneurysm; conditions: hormone substitution therapy, estrogen-deficient female rat model; Non-Patent Document 7; cited from earlier work
[2] = tested on: rat cerebral aneurysm model; test: Cerebral aneurysm formation-inhibitory effect on rat cerebral aneurysm model (vascular corrosion cast staging); type: in vivo, Sprague-Dawley rats; conditions: for Analysis χ^2 Test (P vs control group) / Number of cases at Stage 1 (irregularity of vascular endothelia at the branched portion) / Number of cases at Stage 2 (slight outward projection) / Number of cases at Stage 0 (no irregularity, no outward projection): 12 weeks, 15 cases
Procedure: Cerebral aneurysm models of rats were prepared, Ibudilast was administered to these animals at a dose of […] through the oral route.
In this experiment, 7-week-old Sprague-Dawley rats were used and the posterior nenal arteries at both sides of test animal were ligated and the right side common carotid artery of each test animal was likewise ligated (the preparation of a cerebral aneurysm model of rat: see Non-Patent Document 7 specified above). After one week from the foregoing treatments, the administration of a 1% physiological saline was initiated. Then, the ovaries of each test animal on the both sides were excised after 4 weeks from the initial operation. Starting from the day subsequent to the excision, a 5% gum Arabic solution (control group) and Ibudilast were orally administered to these test animals through the use of an oral probe (sound).
The numbers of cases examined herein were as follows:
Control Group (the animal group administered at a dose of 0 mg/kg/day): 20 cases;
Ibudilast (30 mg/kg/day)-Administered Group: 15 cases; and
Ibudilast (60 mg/kg/day)-Administered Group: 15 cases.
After 12 weeks from the initiation of the administration, the rats were sacrificed, and a resin (curable resin: Baston No. 17 Plastic (manufactured and sold by Polyscience Inc.)) was injected into the blood vessels of the animals to thus form a vascular corrosion cast. Then, each branched portion of the left anterior cerebral artery-olfactory artery present in the vascular corrosion cast was examined using an electron microscope. The evaluation of the results obtained was carried out under the blind conditions to thus estimate the progress of the formation of any cerebral aneurysm according to the following criteria:
Evaluation Criteria of Vascular Corrosion Cast:
Stage 0: There was not observed any […] irregularity and any outward projection;
Stage 1: There was observed irregularity of vascular endothelia at the branched portion;
Stage 2: There was observed a slight and outward projection; and
Stage 3: There was observed a substantial and outward projection or a projection which reaches even to the apex of the branched portion.

| Structure (SMILES) | Effect on cerebral aneurysm formation (in words) [1] | Analysis χ^2 Test (P vs control group) ([2]; Ibudilast 30 mg/kg/day oral) | Number of cases at Stage 1 (irregularity of vascular endothelia at the branched portion) ([2]; Ibudilast 30 mg/kg/day oral) | Number of cases at Stage 2 (slight outward projection) ([2]; Ibudilast 30 mg/kg/day oral) | Number of cases at Stage 0 (no irregularity, no outward projection) ([2]; Ibudilast 30 mg/kg/day oral, vascular corrosion cast, left anterior cerebral artery-olfactory artery branch) | Analysis χ^2 Test (P vs control group) ([2]; Ibudilast 60 mg/kg/day oral) | Number of cases at Stage 0 (no irregularity, no outward projection) ([2]; Ibudilast 60 mg/kg/day oral) | Number of cases at Stage 1 (irregularity of vascular endothelia at the branched portion) ([2]; Ibudilast 60 mg/kg/day oral) | Number of cases at Stage 2 (slight outward projection) ([2]; Ibudilast 60 mg/kg/day oral) | Effect on cerebral aneurysm formation (overall, in words) ([2]; cerebral aneurysm model of rat, oral administration) |
| --- | --- | --- | --- | --- | --- | --- | --- | --- | --- | --- |
| C[C@]12CC[C@@H]3c4ccc(O)cc4CC[C@H]3[C@@H]1CC[C@@H]2O [17β-estradiol] | the formation of any cerebral aneurysm is suppressed |  |  |  |  |  |  |  |  |  |
| CC(C)C(=O)c1c(C(C)C)nn2ccccc12 [Ibudilast] |  | P < 0.005 | 7 | 3 | 4 | P < 0.005 | 4 | 6 | 5 | excellent effect of cerebral aneurysm formation-preventive or suppression |
